Measured values taken from PubChem BioAssay AID248 (DTP/NCI, 2004).
Inconclusive results and toxic doses are left out. No stated cut-off is given here; in the data, active means T/C of 150% or more; inactive means T/C below 125%.

Tested on: L1210 leukemia ip in BDF1 mice, survival T/C
Assay: NCI In Vivo Anticancer Drug Screen. Data for tumor model L1210 Leukemia (intraperitoneal) in B6D2F1 (BDF1) mice
Conditions: endpoint: mean survival time, higher = longer survival
How it was run: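 Tumor was transplanted into mice, which were then dosed with test compound or vehicle alone. Survival was recorded for each group, and the treated figure was expressed relative to the control figure.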

[1] = dose: 100.0 mg/kg/injection, schedule: Q01DX009 (ip), vehicle: saline with Tween-80
[2] = dose: 100.0 mg/kg/injection, schedule: Q01DX009 (ip), vehicle: Klucel (hydroxypropylcellulose) (HPC)
[3] = dose: 200.0 mg/kg/injection, schedule: Q01DX009 (ip), vehicle: Klucel (hydroxypropylcellulose) (HPC)
[4] = dose: 100.0 mg/kg/injection, schedule: Q04DX003 (ip), vehicle: Klucel (hydroxypropylcellulose) (HPC)
[5] = dose: 200.0 mg/kg/injection, schedule: Q04DX003 (ip), vehicle: Klucel (hydroxypropylcellulose) (HPC)
[6] = dose: 400.0 mg/kg/injection, schedule: Q04DX003 (ip), vehicle: Klucel (hydroxypropylcellulose) (HPC)
[7] = dose: 200.0 mg/kg/injection, schedule: Q01DX009 (ip), vehicle: saline with Tween-80
[8] = dose: 50.0 mg/kg/injection, schedule: Q01DX001 (ip), vehicle: carboxymethylcellulose (CMC)
[9] = dose: 100.0 mg/kg/injection, schedule: Q01DX001 (ip), vehicle: carboxymethylcellulose (CMC)
[10] = dose: 200.0 mg/kg/injection, schedule: Q01DX001 (ip), vehicle: carboxymethylcellulose (CMC)
[11] = dose: 400.0 mg/kg/injection, schedule: Q01DX001 (ip), vehicle: carboxymethylcellulose (CMC)
[12] = dose: 100.0 mg/kg/injection, schedule: Q01DX001 (ip), vehicle: saline
[13] = dose: 400.0 mg/kg/injection, schedule: Q01DX001 (ip), vehicle: saline
[14] = dose: 100.0 mg/kg/injection, schedule: Q04DX003 (ip), vehicle: saline

Measured: T/C

C=CCOCC(O)CNCC(O)COCC=C (configuration not stated)
inactive: dose: 25.0 mg/kg/injection, schedule: Q01DX009 (ip), vehicle: saline with Tween-80 98 % of control | dose: 25.0 mg/kg/injection, schedule: Q04DX003 (ip), vehicle: saline with Tween-80 100 % of control | dose: 50.0 mg/kg/injection, schedule: Q01DX009 (ip), vehicle: saline with Tween-80 101 % of control | dose: 50.0 mg/kg/injection, schedule: Q04DX003 (ip), vehicle: saline with Tween-80 92 % of control | [1] 101 % of control | dose: 100.0 mg/kg/injection, schedule: Q04DX003 (ip), vehicle: saline with Tween-80 102 % of control

O=CC(CO)C(C=O)n1ncc2ccccc21 (configuration not stated)
inactive: dose: 50.0 mg/kg/injection, schedule: Q01DX005 (ip), vehicle: water 112 % of control

CC(C)c1cccc(C(C)C)c1OCCOC(=O)Nc1ccc(F)cc1
inactive: [2] 101 % of control | [3] 117 % of control | dose: 400.0 mg/kg/injection, schedule: Q01DX009 (ip), vehicle: Klucel (hydroxypropylcellulose) (HPC) 109 % of control

Oc1c(Cl)cc(N=Cc2ccc(N(CCCCl)CCCCl)cc2Cl)cc1Cl
inactive: dose: 50.0 mg/kg/injection, schedule: Q04DX003 (ip), vehicle: Klucel (hydroxypropylcellulose) (HPC) 101 % of control | [4] 104 % of control | [5] 101 % of control | [6] 98 % of control

CCOC(=O)CNC(=O)NCc1ccc2c(c1)OCO2
inactive: [1] 98 % of control | [7] 90 % of control

N#Cc1ccc(CC(O)(c2ccccc2)c2ccccc2)cc1
inactive: [8] 106 % of control | [9] 101 % of control | [10] 98 % of control | [11] 89 % of control

C[N+]1(C)C2CCC1CC(=NO)C2
inactive: dose: 75.0 mg/kg/injection, schedule: Q01DX001 (ip), vehicle: saline 104 % of control

COCC/C(COC)=N\N=C(/CCOC)COC
inactive: dose: 50.0 mg/kg/injection, schedule: Q01DX001 (ip), vehicle: saline 97 % of control | [12] 103 % of control | [2] 103 % of control | dose: 200.0 mg/kg/injection, schedule: Q01DX001 (ip), vehicle: saline 106 % of control | [3] 111 % of control | [13] 109 % of control

O=C(O)c1c(O)c2cc(Cl)ccc2oc1=O
inactive: [12] 98 % of control | [13] 98 % of control

CNC(=O)Oc1coc(CCl)cc1=O
inactive: dose: 37.5 mg/kg/injection, schedule: Q01DX001 (ip), vehicle: other 106 % of control | dose: 75.0 mg/kg/injection, schedule: Q01DX001 (ip), vehicle: other 101 % of control | dose: 150.0 mg/kg/injection, schedule: Q01DX001 (ip), vehicle: other 104 % of control

Cc1ccc(NC(=O)ON(C)C)cc1
inactive: dose: 25.0 mg/kg/injection, schedule: Q04DX002 (ip), vehicle: other 99 % of control | dose: 50.0 mg/kg/injection, schedule: Q04DX002 (ip), vehicle: other 96 % of control | dose: 100.0 mg/kg/injection, schedule: Q04DX002 (ip), vehicle: other 92 % of control

CCOC(=O)CC1C(=O)CCCC1=O
inactive: dose: 100.0 mg/kg/injection, schedule: Q01DX001 (ip), vehicle: saline with Tween-80 98 % of control | dose: 200.0 mg/kg/injection, schedule: Q01DX001 (ip), vehicle: saline with Tween-80 104 % of control | dose: 400.0 mg/kg/injection, schedule: Q01DX001 (ip), vehicle: saline with Tween-80 95 % of control

CCOc1ccc(/C=N/NC(=O)c2ccc(O)c(OC)c2)cc1OC
inactive: [1] 103 % of control | [7] 92 % of control | dose: 400.0 mg/kg/injection, schedule: Q01DX009 (ip), vehicle: saline with Tween-80 96 % of control

CC(=O)Nc1ccc(S(=O)(=O)N(CCO)c2ccccc2)cc1
inactive: [4] 97 % of control | [5] 90 % of control | [6] 90 % of control

CN=C(N)c1ccc(N=C(N)c2ccc(N=C(N)c3ccc(NC(=O)c4ccc(C(=O)Nc5ccc(C(N)=Nc6ccc(C(N)=Nc7ccc(C(N)=NC)cc7)cc6)cc5)cc4)cc3)cc2)cc1
inactive: dose: 6.25 mg/kg/injection, schedule: Q01DX Z (ip), vehicle: water 110 % of control | dose: 12.5 mg/kg/injection, schedule: Q01DX Z (ip), vehicle: water 120 % of control | dose: 50.0 mg/kg/injection, schedule: Q01DX Z (ip), vehicle: water 121 % of control

N#CCCCN1CCCCCC1
inactive: dose: 25.0 mg/kg/injection, schedule: Q01DX009 (ip), vehicle: saline 98 % of control | dose: 25.0 mg/kg/injection, schedule: Q04DX003 (ip), vehicle: saline 101 % of control | dose: 50.0 mg/kg/injection, schedule: Q01DX009 (ip), vehicle: saline 93 % of control | dose: 50.0 mg/kg/injection, schedule: Q04DX003 (ip), vehicle: saline 101 % of control | [14] 101 % of control

CCC(/C=C\C(C)C1CCC2C3CC=C4CC(O)CCC4(C)C3CCC12C)C(C)C (configuration not stated)
inactive: dose: 75.0 mg/kg/injection, schedule: Q01DX009 (sc), vehicle: steriod suspending solution 94 % of control | [9] 89 % of control | dose: 100.0 mg/kg/injection, schedule: Q04DX003 (sc), vehicle: steriod suspending solution 97 % of control | dose: 150.0 mg/kg/injection, schedule: Q01DX009 (sc), vehicle: steriod suspending solution 98 % of control | [10] 89 % of control | dose: 200.0 mg/kg/injection, schedule: Q04DX003 (sc), vehicle: steriod suspending solution 100 % of control | dose: 300.0 mg/kg/injection, schedule: Q01DX009 (sc), vehicle: steriod suspending solution 97 % of control | [11] 86 % of control | dose: 400.0 mg/kg/injection, schedule: Q04DX003 (sc), vehicle: steriod suspending solution 95 % of control

Cc1ccc(C)c(NC(=O)Nc2c(C)n(C)n(-c3ccccc3)c2=O)c1
inactive: [2] 96 % of control | [4] 97 % of control | [3] 95 % of control | [5] 89 % of control | [6] 93 % of control

O=C1OC(=O)C2C3C=CC(C4C=CC43)C12 (configuration not stated)
inactive: dose: 100.0 mg/kg/injection, schedule: Q01DX009 (ip), vehicle: saline 93 % of control | dose: 100.0 mg/kg/injection, schedule: Q04DX002 (ip), vehicle: saline with Tween-80 103 % of control | [14] 86 % of control | dose: 200.0 mg/kg/injection, schedule: Q01DX009 (ip), vehicle: saline 102 % of control | dose: 200.0 mg/kg/injection, schedule: Q04DX002 (ip), vehicle: saline with Tween-80 100 % of control | dose: 200.0 mg/kg/injection, schedule: Q04DX003 (ip), vehicle: saline 93 % of control | dose: 400.0 mg/kg/injection, schedule: Q04DX003 (ip), vehicle: saline 100 % of control

OCC1OC(n2cnc3c(NO)ncnc32)CC1O (configuration not stated)
inactive: [8] 102 % of control | [9] 109 % of control | [10] 109 % of control | [11] 109 % of control
